From the METLIN SMRT retention time set (Domingo-Almenara et al. 2019)

Assay: gradient 5% acetonitrile 3 min, to 50% in 2 min, to 85% in 15 min, held 3 min, 100 µL/min
Conditions: column: Zorbax Extend-C18 2.1 x 50 mm; eluents: water / acetonitrile, 0.1% formic acid
Method in brief: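 Retention times come from adduct peaks that were picked computationally and then checked by hand. The standards, pure and pooled in mixtures of ~100 molecules, were run on a Zorbax Extend-C18 column (2.1 × 50 mm, 1.8 μm) at 100 μL/min with water and acetonitrile, each with 0.1% formic acid. Detection was by quadrupole time-of-flight mass spectrometry in positive and negative ionization mode, with a dead volume of 40 μL and a dwell volume of 900 μL.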

SMILES | RP-LC retention time [s]
CNC(=O)N1CC2(CCCCC2)CC1COCc1ccccc1 (centres undefined) | 1060
COc1ccc(-c2nc(-c3ccc(S(=O)(=O)N4CCC(C)CC4)cc3)no2)cc1 | 1340
CCC(=O)N1CCCN(C2=NS(=O)(=O)C(c3ccc(C)cc3)=C2C)CC1 | 742
O=C(Nc1cnc(N2CCCC2)nc1)c1cccc(Cl)c1 | 765
COC(=O)c1cc(C2CC2)nc2c1c(=O)n(Cc1ccccc1Cl)c(=O)n2C | 1130
O=C(NC1CCN(Cc2ccccc2)CC1)C1CCCN(c2nccnc2Oc2ccccc2)C1 (centres undefined) | 680
CCn1c(SC)nnc1-c1nn(C)c2c1CN(C(=O)CCc1ccccc1)CC2 | 798
O=C(NCCc1csc(-c2ccccc2)n1)C1CCN(C(=O)Cc2cccs2)CC1 | 794
CC(=O)N1c2ccc(S(=O)(=O)N3CCCC3)cc2CC1C(=O)N1CCN(c2ccccn2)CC1 (centres undefined) | 609
c1ccc(CNc2c(-c3ccc4c(c3)OCCO4)nc3ncccn23)cc1 | 710
O=C(CN1C(=O)CCS(=O)(=O)c2ccccc21)Nc1ccc(F)cc1 | 748
CCCn1cc(CCNC(=O)c2ccnn2CC)c2cccnc21 | 678
CCc1nn2c(CNC(=O)c3cccc(Br)c3)c(C)nc2s1 | 686
O=C(CCc1c(-c2ccccc2)nc2ccccn12)Nc1ccc(F)cc1Cl | 795
Cc1ccc(CCC(=O)Nc2nc(-c3ccc4c(c3)N(C)C(=O)C(C)O4)cs2)cc1 (centres undefined) | 1070
O=c1c2c([nH]c3ccc(Cl)cc13)CCN(Cc1ccc(F)cc1)C2 | 620
CCc1nnc(NS(=O)(=O)c2ccc(NC(=O)c3ccc([N+](=O)[O-])s3)cc2)s1 | 769
O=S(=O)(Cc1ccccc1)N1CCC(Cc2nncn2-c2ccccc2)C1 (centres undefined) | 729
CCCN(C)C[C@@H]1CC(F)(F)CN1C1CCN(S(=O)(=O)c2ccc(C)cc2C)CC1 | 788
COc1ccccc1-c1noc(C2CCCN2C(=O)Nc2ccccc2C)n1 (centres undefined) | 827
N#Cc1cc(NC(=O)Cc2nnc(-c3ccc4ncccc4c3)o2)ccc1F | 720

SMILES | RP-LC retention time [s]
Cn1c(=O)n(C)c2cc(S(=O)(=O)N3CCN(c4ccccn4)CC3)c(Cl)cc21 | 602
CN(C)C(=O)c1ccc(N2CCc3ccccc32)s1 | 907
Cc1cc(C)cc(Oc2nccn3c(=O)n(CC(=O)Nc4cc(F)ccc4F)nc23)c1 | 950
CCOc1cc(=O)n2c(c1C(=O)Nc1cc(F)cc(F)c1)CCCC2 | 794
COc1ccc(CN2C(=O)CC(c3ccc(OC)c(OC)c3)CC2=O)cc1 | 879
COCCn1c(SCc2nc(-c3ccccc3)no2)nc2cc3c(cc2c1=O)OCO3 | 1040
Cn1nc2n(c1=O)CCN(S(=O)(=O)Cc1ccccc1)CC2 | 659
COCCN(Cc1ccsc1)C(=O)C1(c2cccs2)CCCC1 | 1070
Cc1nnc(N2CCCC(C(=O)NCCCN3CCCCCC3)C2)c2nn(-c3ccccc3)c(C)c12 (centres undefined) | 586
O=C(Cn1cccc(-c2nc(-c3ccc(F)cc3)no2)c1=O)Nc1cc(F)ccc1F | 915
CCOc1ccc(CNC(=O)C2CCN(S(=O)(=O)c3cn(CC)cn3)CC2)cc1OC | 676
Cc1ccc(NC(=O)Cn2cnc3nc(N4CCCC(C(=O)NC5CC5)C4)sc3c2=O)c(F)c1 (centres undefined) | 680
Cc1cc(NC(=O)c2c[nH]c3ncccc23)ccc1F | 739
Cc1cc2c(cc(C(=O)N3CCC(C(=O)N4CCCC4)CC3)n2Cc2c(F)cccc2Cl)o1 | 897
O=C(NCc1ccc(F)cc1)Nc1ccc2c(c1)CCN2S(=O)(=O)c1ccccc1 | 904
CN(C)c1ncnc2c1ncn2-c1ccccc1 | 714
CCOc1ccccc1CNC(=O)c1ccc2c(c1)NC(=O)C1CCCCN21 (centres undefined) | 876
CCc1cc(N2CCN(C(=O)COc3ccc(OC)cc3)CC2)nc2nncn12 | 602
Cc1nc(-c2ccccc2)cc2nn(CC(=O)NC(C)CCc3ccccc3)c(=O)n12 (centres undefined) | 989
Cc1ccc(C(=O)Nc2nc(-c3ccc4c(c3)N(C)C(=O)CO4)cs2)cc1 | 952

The remaining lines, values ahead:

RP-LC retention time [s] | SMILES
785 | O=C(c1nnc(-c2ccc(S(=O)(=O)N3CCOCC3)cc2)o1)N1CCCCC1
1200 | CCOC(=O)c1noc2nc(C)nc(Nc3cccc(Cl)c3)c12
862 | O=C(CC1(O)C(=O)Nc2c(Cl)cc(Cl)cc21)c1cccc2ccccc12 (centres undefined)
835 | CC1CCCN(c2ccn3c(=O)n(CC(=O)Nc4cccc(Cl)c4)nc3n2)C1 (centres undefined)
878 | CCSc1ccccc1C(=O)Nc1ccc(-c2nc(C)no2)cc1
606 | COCCC1CCN(C(=O)C2CCN(C(C)=O)CC2)CC1
1040 | CCN(CC)C(=O)c1cnc2snc(C)c2c1N1CCC(C(=O)Nc2ccc(C(C)C)cc2)CC1
607 | CCN1CCN(CCCNC(=O)c2sc3ncccc3c2-n2c(C)ccc2C)CC1
1390 | CCCCOc1ccc(-c2nc(C3CC(=O)N(c4ccc(CC)cc4)C3)no2)cc1 (centres undefined)
674 | Cc1ccc(CNS(=O)(=O)c2cc(-c3[nH]ncc3C(=O)N3CCCC3)oc2C)o1
700 | CCNC(=O)C1CCCN(c2nc3ncn(CC(=O)Nc4ccccc4OCC)c(=O)c3s2)C1 (centres undefined)
771 | Cc1ccc(N2CCn3c2nc2c3c(=O)n(CC(=O)O)c(=O)n2C)cc1C
940 | CCc1ccccc1S(=O)(=O)NCc1c(-c2ccccc2)nc2sc(C)nn12
633 | CCCCN(CC)CCNC(=O)C1CCC(=O)N(c2ccc(OC)cc2)C1c1ccc(F)cc1 (centres undefined)
1010 | CCn1cc(-c2ccc(Cl)cc2)cc1C(=O)NCC1CCCO1 (centres undefined)
740 | Cc1csc(-c2cc(S(=O)(=O)N3CCN(Cc4ccc5c(c4)OCO5)CC3)c(C)s2)n1
707 | COc1cc(NS(=O)(=O)c2c[nH]c3ncccc23)cc(OC)c1
738 | CNC(=O)N1CCc2c(c(-c3nc(-c4cccc(F)c4)no3)nn2C)C1
785 | CCn1ccc2sc(C)c(C(=O)NCc3cccc(OC)c3)c2c1=O
661 | Cc1oc(-c2ccc(C(=O)NCCN3CCN(C)CC3)cc2)nc1CSc1ccccc1
1010 | Cc1ccc(CNC(=O)C2(C)CCCN(C(=O)Nc3ccccc3C(F)(F)F)C2)cc1 (centres undefined)
697 | CCn1nccc1C(=O)Nc1ccc2sc(C)nc2c1
1260 | COc1ccc(C(=S)N2CCN(c3ccccc3Cl)CC2)cc1OC
766 | O=C(c1cc(-c2cccc(Cl)c2)nc2ccccc12)N1CCN(c2ccccn2)CC1

RP-LC retention time [s] | SMILES
581 | CCN1CCN(C(=O)CN2C(=O)COc3ccc(C(=O)N(CC)CC)cc32)CC1
770 | CCN(CC)C(=O)CSc1nnc(-c2ccc3c(c2)OCCCO3)n1C(C)C
765 | NC(=O)C1CCN(c2cc(-c3nc(-c4ccccc4)no3)c3ccccc3n2)CC1
1000 | CCCN1C(=O)COc2ccc(-c3csc(NC(=O)CC(C)C)n3)cc21
922 | CCCCn1cc(S(=O)(=O)Nc2ccccc2F)c2cccnc21
603 | CCOC(=O)CCC(=O)N1CC(c2nc(C)no2)C1
868 | CCOc1ccccc1NC(=O)C1CCN(S(=O)(=O)c2cn(C)cn2)CC1
856 | CCOc1ccc(N2C=C(C(=O)OC)S(=O)(=O)c3ccc(F)cc32)cc1
877 | CC1(C(=O)NCc2ccc(F)cc2)CCN(C(=O)Nc2ccccc2C(F)(F)F)CC1
680 | CCn1ccc(C(=O)NCC2Cn3cccc3C(=O)N2CC(C)C)n1 (centres undefined)
880 | Cc1ccc(-c2ccc(=O)n(CCCC(=O)N3CCc4ccccc43)n2)cc1
598 | CCCNC(=O)C(=O)NCC(c1ccc2c(c1)CCCN2C)N1CCCCC1 (centres undefined)
952 | CCOC(=O)Cc1csc(NC(=O)c2csc(Nc3cccc(Cl)c3)n2)n1
771 | COc1ccc(NC(=O)c2cnc3c(c2)c(=O)n(C)c(=O)n3-c2ccccc2)cc1OC
669 | CCN(CC)S(=O)(=O)c1ccc2c(c1)CC(C(=O)NCc1ccc(N(C)C)cc1)N2C(C)=O (centres undefined)
767 | CC(C)c1ccc(S(=O)(=O)c2cnc(N3CCN(C4CCCCC4)CC3)nc2N)cc1
800 | OC(CNCc1ccc(-c2ccc(Cl)cc2Cl)o1)c1ccccc1 (centres undefined)
648 | CC(=O)N1CCC(C(=O)N2CCCN(c3cc(-c4ccc(Cl)cc4)[nH]n3)CC2)CC1
778 | COc1ccc(NC(=O)CN2C(=O)C(C)(C)c3ccccc32)cc1OC
1030 | CCc1ccc(NC(=O)Cn2nc(N3CCCC3)c3ccccc3c2=O)cc1
845 | CCOC(=O)c1c(C)c(CCC(=O)NC(C)c2ccc3c(c2)OCCO3)n(C)c1C (centres undefined)
1020 | Cc1ccc(-c2ccc(=O)n(CCc3nc(-c4ccc5c(c4)OCO5)no3)n2)cc1C
826 | CC(C)NC(=O)c1ccc(OCC2CCN(C(=O)c3ccc(F)cc3)CC2)cc1
722 | O=C(Cc1nnc(-c2cccc(F)c2)o1)NCC1CC1
